According to US20230143612A1 (Arbutus Biopharma Corporation, priority 2020, published 2023):

Molecular target: PD-L1 His protein / PD-1 Fc protein (Homo sapiens, UniProt Q9NZQ7)
Assay: HTRF Assay (PD-1/PD-L1 interaction)
Assay type: binding
Conditions: PD-L1 His 6 nM, PD-1 Fc 6 nM
Experimental: PD-L1 His protein was prepared and added at the final concentration of 6 nM in the White opaque 384 well plate (Corning cat #3824BC). PD-L1 small molecule inhibitors were diluted by 3-fold starting from 20 μM and a final concentration of 0.001 μM and added to the well. PD-1 Fc protein was added at the final concentration of 6 nM. PD-L1 His protein, PD-L1 small molecule inhibitors, and PD1 Fc proteins were added to the well in this order, with each 5 μl volume, and were incubated for 15 minutes at room temperature. PAb anti-Human IgG-XL665 (Cisbio, cat #61HFCXLA) and Mab anti-6HIS Tb cryptate Gold (Cisbio, cat #61HI2TLA) were mixed at 6.7 nM and 0.35 nM respectively, and total 5 μl volume of mixture was added to the well and incubated at room temperature for 1 hour. The plate was read using PerkinElmer Envision plate reader and data was analyzed by Prism 6 software.

Chain of PD-L1 His protein / PD-1 Fc protein (Q9NZQ7 19-238 limits assumed): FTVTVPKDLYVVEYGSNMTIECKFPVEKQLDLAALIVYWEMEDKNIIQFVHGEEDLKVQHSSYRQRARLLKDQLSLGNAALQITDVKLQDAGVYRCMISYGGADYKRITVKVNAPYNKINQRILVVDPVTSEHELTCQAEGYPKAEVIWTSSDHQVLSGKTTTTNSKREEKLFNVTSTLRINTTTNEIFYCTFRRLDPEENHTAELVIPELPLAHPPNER

Q: With `Cc1c(-c2ccn3c(=O)c(CNC[C@@H]4CCC(=O)N4)cnc3c2)cccc1-c1cccc(-c2ccc(CNC[C@@H]3CCC(=O)N3)c(Cl)c2)c1Cl` [Example 67, 8-(2′,3″-Dichloro-2-methyl-4″-(((((S)-5-oxopyrrolidin-2-yl)methyl)amino)methyl)-[1,1′:3′,1″-terphenyl]-3-yl)-3-(((((S)-5-oxopyrrolidin-2-yl)methyl)amino)methyl)-4H-pyrido[1,2-a]pyrimidin-4-one] as the compound, how does the IC50 read?
A: 3.5 nM

Q: For `COc1nc(-c2cccc(-c3cccc(-c4ccn5c(=O)c(CNCC6(CO)COC6)cnc5c4)c3Cl)c2Cl)ccc1CNC[C@@H]1CCC(=O)N1` [Example 244, (S)-8-(2,2′-dichloro-3′-(6-methoxy-5-((((5-oxopyrrolidin-2-yl)methyl)amino)-methyl)-pyridin-2-yl)-[1,1′-biphenyl]-3-yl)-3-((((3-(hydroxymethyl)oxetan-3-yl)-methyl)-amino)-methyl)-4H-pyrido[1,2-a]pyrimidin-4-one], which IC50 is on record?
A: 0.6 nM

Q: Which IC50 does the source give for `COc1nc(-c2cccc(-c3cccc(-c4ccc5c(c4)cc4n5CCNC4)c3Cl)c2Cl)ccc1CNC[C@@H]1CCC(=O)N1` [Example 365, (S)-5-((((6-(2,2′-Dichloro-3′-(1,2,3,4-tetrahydropyrazino[1,2-a]indol-8-yl)-[1,1′-biphenyl]-3-yl)-2-methoxypyridin-3-yl)methyl)amino)methyl)919yrrolidine-2-one] here?
A: 13 nM

Q: For `Cc1c(COc2cc(OCc3cncc(C#N)c3)c(CN3CC(CO)C3)cc2Cl)cccc1-c1cccc(-c2ccc3c(c2)C(=O)N(C)CC(=O)N3CCN2CC(CO)C2)c1C` [Example 26, 5-((4-Chloro-5-((3′-(1-(2-(3-(hydroxymethyl)azetidin-1-yl)ethyl)-4-methyl-2,5-dioxo-2,3,4,5-tetrahydro-1H-benzo[e][1,4]diazepin-7-yl)-2,2′-dimethyl-[1,1′-biphenyl]-3-yl)methoxy)-2-((3-(hydroxymethyl)azetidin-1-yl)methyl)phenoxy)methyl)nicotinonitrile], which IC50 is on record?
A: 0.7 nM

Q: For `COc1nc(-c2cccc(-c3cccc(-c4ccn5c(=O)c(CNCC(F)(F)CO)cnc5c4)c3Cl)c2Cl)ccc1CNC[C@@H]1CCC(=O)N1` [Example 300, (S)-8-(2,2′-Dichloro-3′-(6-methoxy-5-((((5-oxopyrrolidin-2-yl)methyl)amino)methyl)pyridin-2-yl)-[1,1′-biphenyl]-3-yl)-3-(((2,2-difluoro-3-hydroxypropyl)amino)methyl)-4H-pyrido[1,2-a]pyrimidin-4-one], which IC50 is on record?
A: 130 nM

Q: For `Cc1c(-c2ccn3c(=O)c(CNC[C@@H]4CCC(=O)N4)cnc3c2)cccc1-c1cccc(-c2ccc(CNC[C@@H]3CCC(=O)N3)c(OC(F)(F)F)c2)c1Cl` [Example 88, 8-(2′-Chloro-2-methyl-4″-(((((S)-5-oxopyrrolidin-2-yl)methyl)amino)methyl)-3″-(trifluoromethoxy)-[1,1′:3′,1″-terphenyl]-3-yl)-3-(((((S)-5-oxopyrrolidin-2-yl)methyl)amino)methyl)-4H-pyrido[1,2-a]pyrimidin-4-one], which IC50 is on record?
A: 11 nM

Q: Which IC50 does the source give for `COc1nc(-c2cccc(-c3cccc(-c4ccn5c(=O)c(CNC[C@H](C)O)cnc5c4)c3Cl)c2Cl)ccc1CNC[C@@H](C)O` [Example 196, 8-(2,2′-Dichloro-3′-(5-((((R)-2-hydroxypropyl)amino)methyl)-6-methoxypyridin-2-yl)-[1,1′-biphenyl]-3-yl)-3-((((S)-2-hydroxypropyl)amino)methyl)-4H-pyrido[1,2-a]pyrimidin-4-one] here?
A: 2.8 nM

Q: For `COc1nc(-c2cccc(-c3cccc(-c4ccn5c(=O)c(CN6CC[C@H](C(=O)O)C6)cnc5c4)c3Cl)c2Cl)cnc1CN1CC(CO)C1` [Example 92, (S)-1-((8-(2,2′-Dichloro-3′-(5-((3-(hydroxymethyl)azetidin-1-yl)methyl)-6-methoxypyrazin-2-yl)-[1,1′-biphenyl]-3-yl)-4-oxo-4H-pyrido[1,2-a]pyrimidin-3-yl)methyl)pyrrolidine-3-carboxylic acid], which IC50 is on record?
A: 0.3 nM

Q: For `COc1nc(-c2cccc(-c3cccc(-c4ccn5c(=O)c(CNCCCC(=O)O)cnc5c4)c3Cl)c2Cl)ccc1CNC[C@@H]1CCC(=O)N1` [Example 160, (S)-4-(((8-(2,2′-Dichloro-3′-(6-methoxy-5-((((5-oxopyrrolidin-2-yl)methyl)amino)methyl)pyridin-2-yl)-[1,1′-biphenyl]-3-yl)-4-oxo-4H-pyrido[1,2-a]pyrimidin-3-yl)methyl)amino)butanoic acid], which IC50 is on record?
A: 0.7 nM

Q: Which IC50 does the source give for `COc1nc(-c2cccc(-c3cccc(-c4ccn5c(=O)c(CNCCN6CCS(=O)(=O)CC6)cnc5c4)c3Cl)c2Cl)ccc1CNC[C@@H]1CCC(=O)N1` [Example 266, (S)-8-(2,2′-dichloro-3′-(6-methoxy-5-((((5-oxopyrrolidin-2-yl)methyl)-amino)methyl)-pyridin-2-yl)-[1,1′-biphenyl]-3-yl)-3-(((2-(1,1-dioxidothiomorpholino)-ethyl)-amino)-methyl)-4H-pyrido[1,2-a]pyrimidin-4-one] here?
A: 17.2 nM

Q: With `COc1cc(-c2cccc(-c3cccc(-c4ccn5c(=O)c(CN[C@H]6C[C@](C)(O)C6)cnc5c4)c3Cl)c2Cl)cnc1CN[C@H]1C[C@](C)(O)C1` [Example 361, 8-(2,2′-Dichloro-3′-(6-((((1r,3r)-3-hydroxy-3-methylcyclobutyl)amino)methyl)-5-methoxypyridin-3-yl)-[1,1′-biphenyl]-3-yl)-3-((((1r,3r)-3-hydroxy-3-methylcyclobutyl)amino)methyl)-4H-pyrido[1,2-a]pyrimidin-4-one] as the compound, how does the IC50 read?
A: 39 nM

Q: With `COc1nc(-c2cccc(-c3cccc(-c4cc5c(=O)n(C)c(CN6CC7(CC(O)C7)C6)nn5c4)c3Cl)c2Cl)ccc1CNC[C@@H]1CCC(=O)N1` [Example 468, 6-[2-Chloro-3-[2-chloro-3-[6-methoxy-5-[[[(2S)-5-oxopyrrolidin-2-yl]methylamino]methyl]-2-pyridyl]phenyl]phenyl]-2-[(6-hydroxy-2-azaspiro[3.3]heptan-2-yl)methyl]-3-methyl-pyrrolo[2,1-f][1,2,4]triazin-4-one] as the compound, how does the IC50 read?
A: 7 nM

Q: `Cc1c(-c2ccn3c(=O)c(CNC[C@@H]4CCC(=O)N4)cnc3c2)cccc1-c1cccc(-c2ccc(CNC[C@@H]3CCC(=O)N3)cc2)c1Cl` [Example 65, 8-(2′-Chloro-2-methyl-4″-(((((S)-5-oxopyrrolidin-2-yl)methyl)amino)methyl)-[1,1′:3′,1″-terphenyl]-3-yl)-3-(((((S)-5-oxopyrrolidin-2-yl)methyl)amino)methyl)-4H-pyrido[1,2-a]pyrimidin-4-one] was tested. Which IC50 did it give?
A: 5.6 nM

Q: How did the IC50 turn out when `COc1nc(-c2cccc(-c3cccc(-c4ccn5c(=O)c(CN6C[C@@H](O)C[C@@H]6C(=O)O)cnc5c4)c3Cl)c2Cl)ccc1CNC[C@@H]1CCC(=O)N1` [Example 149, (2R,4S)-1-((8-(2,2′-Dichloro-3′-(6-methoxy-5-(((((S)-5-oxopyrrolidin-2-yl)methyl)amino)methyl)pyridin-2-yl)-[1,1′-biphenyl]-3-yl)-4-oxo-4H-pyrido[1,2-a]pyrimidin-3-yl)methyl)-4-hydroxypyrrolidine-2-carboxylic acid] was run?
A: 0.3 nM

Q: How did the IC50 turn out when `COc1nc(-c2cccc(-c3cccc(-c4ccn5c(Cl)c(CNCCO)nc5c4)c3Cl)c2Cl)ccc1CNCCO` [Example 383, 2-[[6-[2-Chloro-3-[2-chloro-3-[3-chloro-2-[(2-hydroxyethylamino)methyl]imidazo[1,2-a]pyridin-7-yl]phenyl]phenyl]-2-methoxy-3-pyridyl]methylamino]etanol] was run?
A: 40 nM

Q: With `COc1nc(-c2cccc(-c3cccc(-c4ccn5c(=O)c(CNC6(CC(=O)O)CC6)cnc5c4)c3Cl)c2Cl)ccc1CNC[C@@H]1CCC(=O)N1` [Example 139, (S)-2-(1-(((8-(2,2′-Dichloro-3′-(6-methoxy-5-((((5-oxopyrrolidin-2-yl)methyl)amino)methyl)-pyridin-2-yl)-[1,1′-biphenyl]-3-yl)-4-oxo-4H-pyrido[1,2-a]pyrimidin-3-yl)methyl)amino)-cyclopropyl)acetic acid] as the compound, how does the IC50 read?
A: 0.4 nM

Q: `COc1nc(-c2cccc(-c3cccc(-c4ccn5c(=O)c(CNC[C@@H]6CCCO6)cnc5c4)c3Cl)c2Cl)ccc1CNC[C@@H]1CCC(=O)N1` [Example 307, 8-[2-Chloro-3-[2-chloro-3-[6-methoxy-5-[[[(2S)-5-oxopyrrolidin-2-yl]methylamino]methyl]-2-pyridyl]phenyl]phenyl]-3-[[[(2S)-tetrahydrofuran-2-yl]methylamino]methyl]pyrido[1,2-a]pyrimidin-4-one] was tested. Which IC50 did it give?
A: 37 nM

Q: Which IC50 does the source give for `COc1nc(-c2cccc(-c3cccc(-c4ccn5c(=O)c(CN6CC[C@H](O)C6)cnc5c4)c3Cl)c2Cl)ccc1CNC[C@@H]1CCC(=O)N1` [Example 144, 8-(2,2′-Dichloro-3′-(6-methoxy-5-(((((S)-5-oxopyrrolidin-2-yl)methyl)amino)methyl)pyridin-2-yl)-[1,1′-biphenyl]-3-yl)-3-(((S)-3-hydroxypyrrolidin-1-yl)methyl)-4H-pyrido[1,2-a]pyrimidin-4-one] here?
A: 3.1 nM

Q: `COc1nc(-c2cccc(-c3cccc(-c4ccn5c(=O)c(CNC[C@@H]6CCC(=O)N6)cnc5c4)c3Cl)c2Cl)ccc1CN[C@@H](CO)C(=O)O` [Example 114, ((6-(2,2′-Dichloro-3′-(4-oxo-3-(((((S)-5-oxopyrrolidin-2-yl)methyl)amino)methyl)-4H-pyrido[1,2-a]pyrimidin-8-yl)-[1,1′-biphenyl]-3-yl)-2-methoxypyridin-3-yl)methyl)-L-serine] was tested. Which IC50 did it give?
A: 0.6 nM
